Experiment: GC-MS analysis of volatile components after light exposure
Assay type: physicochemical
Settings: after 5 d of light exposure
Procedure: Untreated ATVO, the physical mixture (10 mL ATVO, 10 mL distilled water, and 0.3 g MSTC mixed uniformly with a glass rod), and the MSTC-stabilized PE were each placed into flat weighing bottles (40 × 25 mm). The samples were stored in a light-stability chamber with a light intensity of 4500 ± 500 lx and a controlled temperature of 25 ± 0.5 °C. Aliquots were collected after 1, 3, and 5 days of light exposure. The physical mixture and PE groups were centrifuged (10,000 rpm, 10 min) to achieve phase separation prior to analysis. All assays were performed in triplicate, and the obtained samples were maintained at 4 °C until analyzed.Volatile oil retention rate (%) = Vt/V0 × 100%(2) The volatile components of ATVO were determined by gas chromatography-mass spectrometry (GC-MS) according to a previously reported method. Samples from each treatment group were prepared before analysis. Briefly, 100 μL of each volatile oil sample was transferred into a 10 mL volumetric flask. Then, 100 μL of n-docosane internal standard solution (10 mg·mL^−1) was added. The mixture was diluted to volume with n-hexane. […] It was then vortex-mixed and filtered through a 0.22 μm organic membrane filter. The filtrate was used for GC-MS analysis. […] Relative quantification was performed using n-docosane as the internal standard. […]

For `C=C/C(C)=C/CC=C(C)C` [003779-61-1, (E)-3,7-dimethylocta-1,3,6-triene], the “relative content of the component” value (PE group) was “well retained” and the “relative content of the component” value (free ATVO (O) group implied) was “decreased to zero”.

Source: paper PMC13415033, “Pickering Emulsion Stabilized by Chitosan-Modified Saigae Tataricae Cornu Particles for Improving the Oxidative Stability and In Vivo Pharmacokinetics of Acorus tatarinowii Schott Volatile Oil” (Pharmaceuticals, 2026)
